Measurements published in PubChem BioAssay (NCI).
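Five concentrations, 48 hours, 96-well plates. GI50 = concentration required for 50% inhibition of growth. TGI: concentration producing complete growth inhibition.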

Columns and labels:
Experiment in all cases: growth of human tumour cells (NCI), 48 h
CCRF-CEM leukemia = tested on: CCRF-CEM leukemia
UACC-62 melanoma = tested on: UACC-62 melanoma
HT29 colon = tested on: HT29 colon
NCI-H460 lung = tested on: NCI-H460 lung
HCT-15 colon = tested on: HCT-15 colon
RXF 393 renal = tested on: RXF 393 renal
M14 melanoma = tested on: M14 melanoma
SW-620 colon = tested on: SW-620 colon
NCI-H522 lung = tested on: NCI-H522 lung
OVCAR-3 ovarian = tested on: OVCAR-3 ovarian
MCF7 breast = tested on: MCF7 breast
SNB-19 CNS = tested on: SNB-19 CNS
OVCAR-8 ovarian = tested on: OVCAR-8 ovarian
MOLT-4 leukemia = tested on: MOLT-4 leukemia
K-562 leukemia = tested on: K-562 leukemia
KM12 colon = tested on: KM12 colon
SF-539 CNS = tested on: SF-539 CNS
SK-OV-3 ovarian = tested on: SK-OV-3 ovarian
SK-MEL-2 melanoma = tested on: SK-MEL-2 melanoma
IGROV1 ovarian = tested on: IGROV1 ovarian
T-47D breast = tested on: T-47D breast
A549 NSCLC = tested on: A549 NSCLC
CAKI-1 renal = tested on: CAKI-1 renal
NCI-H23 lung = tested on: NCI-H23 lung
HL-60(TB) leukemia = tested on: HL-60(TB) leukemia
HS 578T breast = tested on: HS 578T breast
SK-MEL-5 melanoma = tested on: SK-MEL-5 melanoma
786-0 renal = tested on: 786-0 renal
HOP-92 NSCLC = tested on: HOP-92 NSCLC
SF-295 CNS = tested on: SF-295 CNS
UACC-257 melanoma = tested on: UACC-257 melanoma
SN12C renal = tested on: SN12C renal
OVCAR-5 ovarian = tested on: OVCAR-5 ovarian
LOX IMVI melanoma = tested on: LOX IMVI melanoma
MDA-MB-231 breast = tested on: MDA-MB-231 breast
HCC-2998 colon = tested on: HCC-2998 colon
UO-31 renal = tested on: UO-31 renal
PC-3 prostate = tested on: PC-3 prostate
COLO 205 colon = tested on: COLO 205 colon
DU-145 prostate = tested on: DU-145 prostate
EKVX NSCLC = tested on: EKVX NSCLC
MDA-MB-435 = tested on: MDA-MB-435
SK-MEL-28 melanoma = tested on: SK-MEL-28 melanoma
HCT-116 colon = tested on: HCT-116 colon
NCI/ADR-RES ovarian = tested on: NCI/ADR-RES ovarian
OVCAR-4 ovarian = tested on: OVCAR-4 ovarian
ACHN renal = tested on: ACHN renal
NCI-H226 lung = tested on: NCI-H226 lung
SF-268 CNS = tested on: SF-268 CNS
U251 CNS = tested on: U251 CNS
BT-549 breast = tested on: BT-549 breast
HOP-62 NSCLC = tested on: HOP-62 NSCLC
TK-10 renal = tested on: TK-10 renal
A498 renal = tested on: A498 renal
SNB-75 CNS = tested on: SNB-75 CNS
RPMI-8226 leukemia = tested on: RPMI-8226 leukemia

CC1=NN(C2=NS(=O)(=O)c3ccccc3N2C)C(=O)C1
TGI (CCRF-CEM leukemia): > 100 µM | TGI (UACC-62 melanoma): > 100 µM | TGI (HT29 colon): > 100 µM | TGI (NCI-H460 lung): > 100 µM | TGI (HCT-15 colon): > 100 µM | TGI (RXF 393 renal): > 100 µM | TGI (M14 melanoma): > 100 µM | TGI (SW-620 colon): > 100 µM | TGI (NCI-H522 lung): > 100 µM | TGI (OVCAR-3 ovarian): > 100 µM | TGI (MCF7 breast): > 100 µM | TGI (SNB-19 CNS): > 100 µM | TGI (OVCAR-8 ovarian): > 100 µM | TGI (MOLT-4 leukemia): > 100 µM | TGI (K-562 leukemia): > 100 µM | TGI (KM12 colon): > 100 µM | TGI (SF-539 CNS): > 100 µM | TGI (SK-OV-3 ovarian): > 100 µM | TGI (SK-MEL-2 melanoma): > 100 µM | TGI (IGROV1 ovarian): > 100 µM | TGI (T-47D breast): > 100 µM | TGI (A549 NSCLC): > 100 µM | TGI (CAKI-1 renal): > 100 µM | TGI (NCI-H23 lung): > 100 µM | TGI (HL-60(TB) leukemia): > 100 µM | TGI (HS 578T breast): > 100 µM | TGI (SK-MEL-5 melanoma): > 100 µM | TGI (786-0 renal): > 100 µM | TGI (HOP-92 NSCLC): > 100 µM | TGI (SF-295 CNS): > 100 µM | TGI (UACC-257 melanoma): > 100 µM | TGI (SN12C renal): > 100 µM | TGI (OVCAR-5 ovarian): > 100 µM | TGI (LOX IMVI melanoma): > 100 µM | TGI (MDA-MB-231 breast): > 100 µM | TGI (HCC-2998 colon): > 100 µM | TGI (UO-31 renal): > 100 µM | TGI (PC-3 prostate): > 100 µM | TGI (COLO 205 colon): > 100 µM | TGI (DU-145 prostate): > 100 µM | TGI (EKVX NSCLC): > 100 µM | TGI (MDA-MB-435): > 100 µM | TGI (SK-MEL-28 melanoma): > 100 µM | TGI (HCT-116 colon): > 100 µM | TGI (NCI/ADR-RES ovarian): > 100 µM | TGI (OVCAR-4 ovarian): > 100 µM | TGI (ACHN renal): > 100 µM | TGI (NCI-H226 lung): > 100 µM | TGI (SF-268 CNS): > 100 µM | TGI (U251 CNS): > 100 µM | TGI (BT-549 breast): > 100 µM | TGI (HOP-62 NSCLC): > 100 µM | TGI (TK-10 renal): > 100 µM | TGI (A498 renal): > 100 µM

c1ccc(N2CCN(CN3CCN(c4ccccc4)C3)C2)cc1
GI50 (CCRF-CEM leukemia): 42 µM | TGI (CCRF-CEM leukemia): > 100 µM | GI50 (UACC-62 melanoma): > 100 µM | TGI (UACC-62 melanoma): > 100 µM | GI50 (HT29 colon): > 100 µM | TGI (HT29 colon): > 100 µM | GI50 (NCI-H460 lung): > 100 µM | TGI (NCI-H460 lung): > 100 µM | GI50 (HCT-15 colon): > 100 µM | TGI (HCT-15 colon): > 100 µM | GI50 (RXF 393 renal): > 100 µM | TGI (RXF 393 renal): > 100 µM | GI50 (M14 melanoma): > 100 µM | TGI (M14 melanoma): > 100 µM | GI50 (SW-620 colon): 60.7 µM | TGI (SW-620 colon): > 100 µM | GI50 (NCI-H522 lung): > 100 µM | TGI (NCI-H522 lung): > 100 µM | GI50 (OVCAR-3 ovarian): > 100 µM | TGI (OVCAR-3 ovarian): > 100 µM | GI50 (MCF7 breast): > 100 µM | TGI (MCF7 breast): > 100 µM | GI50 (SNB-19 CNS): > 100 µM | TGI (SNB-19 CNS): > 100 µM | GI50 (OVCAR-8 ovarian): > 100 µM | TGI (OVCAR-8 ovarian): > 100 µM | GI50 (MOLT-4 leukemia): 23.8 µM | TGI (MOLT-4 leukemia): > 100 µM | GI50 (K-562 leukemia): 3.9 µM | TGI (K-562 leukemia): > 100 µM | GI50 (KM12 colon): > 100 µM | TGI (KM12 colon): > 100 µM | GI50 (SF-539 CNS): > 100 µM | TGI (SF-539 CNS): > 100 µM | GI50 (SK-OV-3 ovarian): > 100 µM | TGI (SK-OV-3 ovarian): > 100 µM | GI50 (SK-MEL-2 melanoma): > 100 µM | TGI (SK-MEL-2 melanoma): > 100 µM | GI50 (SNB-75 CNS): > 100 µM | TGI (SNB-75 CNS): > 100 µM | GI50 (IGROV1 ovarian): 25.5 µM | TGI (IGROV1 ovarian): > 100 µM | GI50 (T-47D breast): > 100 µM | TGI (T-47D breast): > 100 µM | GI50 (A549 NSCLC): > 100 µM | TGI (A549 NSCLC): > 100 µM | GI50 (CAKI-1 renal): > 100 µM | TGI (CAKI-1 renal): > 100 µM | GI50 (NCI-H23 lung): > 100 µM | TGI (NCI-H23 lung): > 100 µM | GI50 (HS 578T breast): > 100 µM | TGI (HS 578T breast): > 100 µM | GI50 (SK-MEL-5 melanoma): > 100 µM | TGI (SK-MEL-5 melanoma): > 100 µM | GI50 (786-0 renal): > 100 µM | TGI (786-0 renal): > 100 µM | GI50 (HOP-92 NSCLC): > 100 µM | TGI (HOP-92 NSCLC): > 100 µM | GI50 (RPMI-8226 leukemia): 60.9 µM | TGI (RPMI-8226 leukemia): > 100 µM | GI50 (SF-295 CNS): > 100 µM | TGI (SF-295 CNS): > 100 µM | GI50 (UACC-257 melanoma): > 100 µM | TGI (UACC-257 melanoma): > 100 µM | GI50 (SN12C renal): > 100 µM | TGI (SN12C renal): > 100 µM | GI50 (OVCAR-5 ovarian): > 100 µM | TGI (OVCAR-5 ovarian): > 100 µM | GI50 (LOX IMVI melanoma): 66.6 µM | TGI (LOX IMVI melanoma): > 100 µM | GI50 (MDA-MB-231 breast): > 100 µM | TGI (MDA-MB-231 breast): > 100 µM | GI50 (HCC-2998 colon): > 100 µM | TGI (HCC-2998 colon): > 100 µM | GI50 (UO-31 renal): > 100 µM | TGI (UO-31 renal): > 100 µM | GI50 (PC-3 prostate): > 100 µM | TGI (PC-3 prostate): > 100 µM | GI50 (COLO 205 colon): > 100 µM | TGI (COLO 205 colon): > 100 µM | GI50 (DU-145 prostate): > 100 µM | TGI (DU-145 prostate): > 100 µM | GI50 (EKVX NSCLC): > 100 µM | TGI (EKVX NSCLC): > 100 µM | GI50 (MDA-MB-435): > 100 µM | TGI (MDA-MB-435): > 100 µM | GI50 (SK-MEL-28 melanoma): > 100 µM | TGI (SK-MEL-28 melanoma): > 100 µM | GI50 (HCT-116 colon): 41.9 µM | TGI (HCT-116 colon): > 100 µM | GI50 (NCI/ADR-RES ovarian): > 100 µM | TGI (NCI/ADR-RES ovarian): > 100 µM | GI50 (OVCAR-4 ovarian): > 100 µM | TGI (OVCAR-4 ovarian): > 100 µM | GI50 (ACHN renal): 54 µM | TGI (ACHN renal): > 100 µM | GI50 (NCI-H226 lung): > 100 µM | TGI (NCI-H226 lung): > 100 µM | GI50 (SF-268 CNS): > 100 µM | TGI (SF-268 CNS): > 100 µM | GI50 (U251 CNS): > 100 µM | TGI (U251 CNS): > 100 µM | GI50 (BT-549 breast): > 100 µM | TGI (BT-549 breast): > 100 µM | GI50 (HOP-62 NSCLC): > 100 µM | TGI (HOP-62 NSCLC): > 100 µM | GI50 (A498 renal): 37.2 µM | TGI (A498 renal): > 100 µM
